Patent US20170066797A1, “WITHAFERIN A ANALOGS AND USES THEREOF” (Whitehead Institute for Biomedical Research, priority 2008, published 2017)

Experiments:
[1] = test system: rat spinal cord motor neurons; assay: Neurotrophic factor (BDNF) deprivation-induced apoptosis of spinal cord motor neurons; assay type: cell-based; settings: for reduction in cell death of motor neurons plated in the absence of BDNF: 24 hours, calcein-A
Experimental: FIGS. 12A-12D. Neuronal survival and increase in neurite length as assessed by calcein-A staining which is taken up by viable neurons. (A) In the absence of BDNF (−BDNF) there is approximately 40% reduction in viable motor neurons compared to wells with BDNF present (+BDNF). Addition of withaferin A (WA) to the motor neuron cultures plated in the absence of BDNF results in a 50% reduction in cell death at 200 nM (0.2 μM) concentration of WA and a 75% reduction in cell death at 400 nM (0.4 μM) as assessed after 24 hours. […] (B) Graph showing percent protection. (C) Motor neuron viability assay of WA. (D) WA increases neurite length (normalized to control) measured at the end of the experiment.
Neurotrophic factor deprivation-induced apoptosis of rat spinal cord motor neurons was used as a model system to evaluate neuroprotective activity of withaferin A. Primary spinal cord motor neurons were purified from E15 rats. These cells were dissociated from the ventral spinal cord, enriched by density gradient centrifugation, and purified by magnetic bead cell separation using an antibody against p75NTR which is expressed on the cell surface of motor neurons at this developmental age. The resulting cultures are ˜96% motor neurons as assessed by HB9 or islet-1 immunoreactivity and are virtually devoid of astrocytes or microglia. For viability experiments, the cells were plated at a low density (500 cells/well of a 96-well plate). In these cultures, motor neuron survival is highly dependent on trophic factors added to the culture media (in the form of BDNF, GDNF, or cardiotrophin-1), as ˜50% of the attached cells will undergo apoptosis when deprived of trophic factors (Oppenheim, R. W., et al., Nature, 360: 755-757; Henderson, C. E., et al., Science, 266: 1062-1064, 1994). BDNF was used as the trophic factor.
Neuronal survival was assessed by staining with calcein-A, a fluorescent dye that is taken up by viable neurons. […]
In some experiments, a fluorescence image of the entire well within a plate was captured using a flash cytometer (Trophos). […]

Hsp72, Hsp27 = assay: Heat-shock protein induction in organs after IP administration; assay type: in vivo, mice; settings: IP 18 mg/kg/day, 16 hours after last injection, FIG. 10
Experimental: FIG. 10. Heat-shock protein induction following Withaferin A (WA) administration to mice. WA was formulated in DMSO/Cremophor/Saline vehicle and injected intraperitoneally (IP) at a total dose of 18 mg/kg/day, either as a single injection (WA ×1) or divided in two 9 mg/kg injections (WA ×2) spaced 6 hrs apart. Control animals received an equal volume of vehicle alone as a single injection. Mice were sacrificed 16 hours after the last injection, organs harvested and protein lysates prepared for immunoblotting. Equal loading of samples was confirmed by staining membranes for total protein (left panels). The relative tissue levels of Hsp72, Hsp27 and Annexin 2 (a putative target of Withaferin A) were determined by probing with specific antibodies as indicated. Note the robust induction of heat shock protein levels in spleen (Annexin 2 positive), but not normal brain (Annexin 2 negative) associated with prior Withaferin A exposure.

CC1=C(CO)C(=O)OC([C@@H](C)C2CCC3C4C[C@H]5O[C@]56[C@@H](O)C=CC(=O)[C@]6(C)C4CC[C@@]32C)C1 (some centres unmarked) [Withaferin A]
reduction in cell death of motor neurons plated in the absence of BDNF ([1]; 200 nM (0.2 μM)): 50% | reduction in cell death of motor neurons plated in the absence of BDNF ([1]; 400 nM (0.4 μM)): 75% | neurite growth of motor neurons ([1]; FIG. 12D): induces the growth of neurites | heat shock response induction in brain (Hsp72, Hsp27; annexin II absent): not in brain cells | heat shock response induction in spleen (Hsp72, Hsp27; annexin II present): induces the heat shock response in spleen cells
